Assay results as given in US7462605B2, “Phosphoramidate compounds and methods of use” (Celmed Oncology (USA), Inc., priority 2002, dated 2008).
Where two headings read alike, the source gives them in different places.

Assays:
Assay type in all cases: cell-based, human
[1] = system: PANC1 (Pancreas) tumor cells; test: alamarBlue growth inhibition, PANC1; conditions: 120 hours
Experimental: (§1) Growth Inhibition Studies. Cells growing exponentially were transferred to 384-well flat bottom tissue culture plates. All cell types were plated at a density of 500 cells per well in 25 μL of complete medium (RPMI 1640+10% fetal bovine serum+antibiotics/antimycotics). After 24 hours (day 0), 25 μL of complete medium containing the experimental compounds over the dose range of 10^ñ3 to 10^ñ10 M were added in triplicate. […] 5 μL of the redox indicator, alamarBlue, was added to each well (10% v/v). After 4 hours incubation at 37° C., fluorescence was monitored at 535 nm excitation and 595 nm emission.
(§2) Concentration vs. relative fluorescence units (RFU) were plotted, and sigmoid curves were fit using the Hill equation.

HCTC (Colon) tumor cells = test: alamarBlue growth inhibition, HCTC; conditions: 120 hours
Experimental: as §1, §2

[2] = system: DET551 (Skin) normal cells; test: alamarBlue growth inhibition, DET551; conditions: 120 hours
Experimental: as §1, §2

[3] = system: MCIxc (Brain) tumor cells; test: alamarBlue growth inhibition, MCIxc; conditions: 120 hours
Experimental: as §1, §2

[4] = system: NCI H520 (Lung) tumor cells; test: alamarBlue growth inhibition, NCI H520; conditions: 120 hours
Experimental: as §1, §2

[5] = system: SW620 (Colon) tumor cells; test: alamarBlue growth inhibition, SW620; conditions: 120 hours
Experimental: as §1, §2

[6] = system: CCD18co normal colon epithelial cells; test: alamarBlue growth inhibition, CCD18co
Experimental: as §1, §2

[7] = system: RKO colon cancer cells, TDX selection; test: alamarBlue cytotoxicity, RKO TDX-selected; conditions: Drug Selection TDX, read-out: NB1011-IC50
Experimental: as §1, §2
Cells were grown and characterized as described above. TS expression level is relative to CCD18co, a normal colon epithelial cell line. Tritium release is background substracted as described in Methods. ND=Not detectable above background.

TSL/HT1080 cells = test: alamarBlue cytotoxicity, HT1080 expressing low GFP-TS; conditions: TSL/HT1080, TS Level 409%
Experimental: (§3) Cell lines and transfection. HT1080 cells were grown in PRM11640 medium supplemented with 10% fetal calf serum, and transfected with GFP-TS expression vector. 48 hours after, transfection cells were tripsinized and replated in culture medium containing 750 μg/ml G418. After selection with G418 for two weeks, surviving cells were sorted based upon fluorescence expression. One clone with higher fluorescence expression (named as TSH/HT1080) and one clone with lower fluorescence expression (named as TSL/HT1080) were selected and expanded into cells lines. The stable HT1080 cells transfected with pEGFP-C3 were used as control.
(§4) Construction of GFP-TS expression vector. […] The cDNA was cloned into HindIII and KpnI sites of mammalian expression vector pEGFP-C3 (Clontech Laboratories. Inc., Palo Alto, Calif.), in-frame with GFP sequence. The cDNA insert was confirmed by DNA sequencing.
(§5) Growth Inhibition Studies. Cells growing exponentially were transferred to 384-well flat bottom tissue culture plates. All cell types were plated at a density of 500 cells per well in 25 μL of complete medium (RPMI 1640+10% fetal bovine serum+antibiotics/antimycotics). […] After 4 hours incubation at 37° C., fluorescence was monitored at 535 nm excitation and 595 nm emission.
as §2

NHDF (Skin) normal cells = test: alamarBlue growth inhibition, NHDF; conditions: 120 hours
Experimental: as §1, §2

[8] = system: MCF7 (Breast) tumor cells; test: alamarBlue growth inhibition, MCF7
Experimental: as §1, §2

H527 (Skin) normal cells = test: alamarBlue growth inhibition, H527; conditions: 120 hours
Experimental: as §1, §2

C/HT1080 cells = test: alamarBlue cytotoxicity, control-transfected HT1080; conditions: C/HT1080, TS Level 100%
Experimental: as §3, §4, §5, §2

[9] = system: H630R10 5FU-resistant colon tumor cells; test: alamarBlue growth inhibition, H630R10
Experimental: as §1, §2

5-(2-Bromovinyl)-2′-deoxyuridine phenyl N-methoxy-L-alaninyl phosphoramidate [NB1011]
IC50 [1]: 492 µM | IC50 (HCTC (Colon) tumor cells): 280 µM | IC50 [2]: 262 µM | IC50 [3]: 61 µM | IC50 [4]: 135 µM | IC50 [5]: 374 µM | IC50 ([6]; Normal Cells: CCD1800 (Colon), alamarBlue, 120 hours): 562 µM | IC50 ([6]; normal colon epithelial cells (CCD18co), comparison with 5FUdR): > 2500 µM | IC50 [7]: 28 µM | IC50 (TSL/HT1080 cells): 196 µM | IC50 (NHDF (Skin) normal cells): 359 µM | IC50 ([8]; MCF7, alamarBlue, read-out: IC50): 291 µM | IC50 ([8]; MCF7 Breast cancer, Drug Selection None, read-out: NB1011-IC50): 327 µM | IC50 ([8]; Tumor Cells: MCF7 (Breast), alamarBlue, 120 hours, read-out: IC50): 141 µM | IC50 (H527 (Skin) normal cells): 273 µM | IC50 (C/HT1080 cells): 320 µM | IC50 ([9]; H630 Colon cancer, Drug Selection 5FU, read-out: NB1011-IC50): 65 µM | NB1011 activity diminished, compared to NB1011 alone ([9]; H630R10, in the presence of 3 μM LV, alamarBlue): more than 90% | IC50 ([9]; H630R10, comparison with 5FUdR, read-out: IC50): 217 µM | IC50 ([9]; Tumor Cells: H630R10 (Colon), alamarBlue, 120 hours, read-out: IC50): 65 µM
